Columns and labels:
BA mammary carcinoma = experiment: In vivo assay of photosensitizers on tumors (PDT tumor cure); parameters: species or system C3H/HeJ mice; conditions: light dose 200 J/cm^2, n = 10
Procedure: Female C3H/HeJ mice (8-9 weeks old) were subjected to trochar implantation of BA mammary carcinoma on the hind leg of the animals. Animals having tumors ca 5 mm in diameter were entered into the in vivo screen. For each new photosensitizer, a group of at least three mice were used to ascertain a drug dose that caused a response as described in table 3 when treated with the appropriate wavelength of light. Generally in this series, animals were injected with 1 μ mole of sensitizer/Kg of body weight, formulated in egg yolk phosphatidate (EYP), via the tail vein. At a defined time period later the animals were irradiated with light from a laser source tuned to the wavelength of activation of the sensitizer. The power density of the laser was set at 75 mW/cm^2 with a total light dose of 200 J/cm^2.

[1] = test system: Chinese hamster lung fibroblasts (V-79); experiment: DC(50)(light): colony-formation phototoxicity after laser irradiation; format: cell-based; conditions: V-79 cells; sensitizer incubation 16-24 hours; 12.5 mW/cm^2, total light dose 1.25 J/cm^2; concentration for lethal damage to 50% of cells
Procedure: (§1) For the Biological Evaluation, Chinese hamster lung fibroblasts (V-79) obtained from the American Tissue Culture Collection were grown in D-MEM supplemented with 10% fetal calf serum at 37° C., 5% CO2, and 95% humidity. These cells were used to evaluate the sensitizers for dark and light toxicity, and cellular uptake. Medium was replaced with 5% fetal calf serum supplemented medium during sensitizer incubations.
In the first phase, the combination of intracellular and extracellular concentration of photosensitizer required for lethal damage to 50% of the cells in culture (DC(50)) on light exposure was determined by plating cells at a density of 100 cells/cm^2 and incubating for 1-3 hours to allow attachment of the cells. Cells were incubated with various concentrations of sensitizer ([C]=0.01-1.0 μM) delivered in non-toxic concentrations of DMSO/5% dextrose solution or in some cases in egg yolk phosphatidase (EYP) for 16-24 hours. The cells were then irradiated with laser light using a tunable Lexel argon pumped dye laser at the band I absorption of the photosensitizer. Total power density was adjusted to 12.5 mW/cm^2 and a total light dose of 1.25 J/cm^2 was applied. After treatment, cells were washed with HBSS, refed with 10% FBS supplemented DMEM with phenol red and incubated for 3-5 days to allow colony formation. Cells were fixed in methanol, stained with Giemsa, and colonies were counted. Plating efficiency was determined using a control colony and the mean percent survival fraction plotted against the sensitizer concentration and the DC50 established (Table 5).

[2] = Photophysical measurements of photosensitizers (λmax, ε, φ f); format: physicochemical; parameters: λmax: unit not given here; conditions: for ε: at λmax; for λmax: band I absorption maximum
V-79 cells = experiment: Cellular uptake of photosensitizer; format: in vitro ADME, Chinese hamster; conditions: 10 μM photosensitizer in EYP
Procedure: as §1
Several photosensitizers were screened by a standard cellular uptake protocol. A 10 μM stock solution of photosensitizer in EYP was prepared by dilution of the photosensitizer stock (1 mM) using 5% dextrose solution. […] Following incubation the cells were washed with PBS (1 mL) three times, then washed with HBSS (1 mL) and detached using 100 μL of trypsin. Individual wells containing cells were lysed by three freeze thaws.
Spiking experiments were performed to confirm that the sensitizer could be adequately recovered using standard procedures. The sensitizer was then extracted from the cell debris with DMSO, centrifuged and the supernatant examined for fluorescence. Sensitizer concentration was determined by comparison to a standard curve. Results are expressed in ug/ug protein. Untreated monolayers are used to determine cell count. Treated cells of each time point were used to determine the protein concentration using the BCA assay. Results shown are the mean of the three experiments for each timepoint.

[3] = drug dose 3 μm/Kg via tail vein in EYP, treatment 24 post injection
[4] = drug dose 2.5 μm/Kg via tail vein in EYP, treatment 24 post injection
[5] = drug dose 0.05 μm/Kg via tail vein in EYP, treatment 24 post injection
[6] = drug dose 0.1 μm/Kg via tail vein in EYP, treatment 24 post injection

Compound | IC50 [1] | φ f [2] | ε [2] | λmax [2] | also measured
CCC1=C(CC)c2cc3[nH]c(c(CC)c3CC)c3cccc4c3nc(cc3[nH]c(cc1n2)c(CC)c3CC)C4(CC)CC [Compound 1, Octaethylbenzochlorin] | > 1000 nM | 0.347 | 35,000 M^−1 cm^−1 | 658 | % Cure (30 days) (BA mammary carcinoma; [3]): 60%
C=Cc1c(C)c2cc3nc(c4c5[nH]c(cc6nc(cc1[nH]2)C(C)=C6CC)c(C)c5C(=O)C4)[C@@H](CCC(=O)OC)[C@@H]3C [Compound 22] | – | – | – | – | % Cure (30 days) (BA mammary carcinoma; drug dose 10.6 μm/Kg via tail vein in EYP, treatment 3 post injection): 50%
CCC1=C(CC)c2cc3[nH]c(c(CC)c3CC)c3cc(C)cc4c3nc(cc3[nH]c(cc1n2)c(CC)c3CC)C4(CC)CC [Compound 3] | – | 0.35 | 35,000 M^−1 cm^−1 | 658 | % Cure (30 days) (BA mammary carcinoma; [4]): 60%
CCC1=C(CC)C2=NC1=Cc1c(CC)c(CC)c3[n]1[Zn][n]1c(c(CC)c(CC)c1=c1cccc4c1=NC(=C3)C4(CC)CC)=C2 [Compound 4] | > 1000 nM | 0.150 | 57,000 M^−1 cm^−1 | 678 | % Cure (30 days) (BA mammary carcinoma; [3]): 0%
CCC1=C(CC)C2=NC1=Cc1c(CC)c(CC)c3[n]1[In]([Cl])[n]1c(c(CC)c(CC)c1=c1cc(S(=O)(=O)NCCCCC(N)C(=O)O)cc4c1=NC(=C3)C4(CC)CC)=C2 (centres unmarked) [Compound 21, InOEBCSO2NH (CH2)4CH(NH2)CO2H] | 40 nM | 0.03 | 52,000 M^−1 cm^−1 | 684 | –
C=Cc1c(C)c2[n]3c1=CC1=NC(=Cc4c(C)c5c([n]4[In]3[Cl])C(=C3N=C(C=2)[C@@H](C)[C@@H]3CCC(=O)OC)CC5=O)C(CC)=C1C [Compound 24] | – | – | – | – | % Cure (30 days) (BA mammary carcinoma; drug dose 0.2 μm/Kg via tail vein in EYP, treatment 6 or 8 post injection): 80%
CCC1=C(CC)C2=NC1=Cc1c(CC)c(CC)c3[n]1[In]([Cl])[n]1c(c(CC)c(CC)c1=c1cc(S(=O)(=O)NCCCCCO)cc4c1=NC(=C3)C4(CC)CC)=C2 [Compound 13] | 40 nM | ˜0.03 | 52,000 M^−1 cm^−1 | 684 | % Cure (30 days) (BA mammary carcinoma; drug dose 0.075 μm/Kg via tail vein in EYP, treatment 24 post injection): 80%
CCC1=C(CC)C2=NC1=Cc1c(CC)c(CC)c3[n]1[In]([Cl])[n]1c(c(CC)c(CC)c1=c1cc(S(=O)(=O)NCCN(C)C)cc4c1=NC(=C3)C4(CC)CC)=C2 [Compound 15] | 50 nM | ˜0.03 | 52,000 M^−1 cm^−1 | 684 | % Cure (30 days) (BA mammary carcinoma; [5]): 100%
CCC1=C(CC)C2=NC1=Cc1c(CC)c(CC)c3[n]1[In]([Cl])[n]1c(c(CC)c(CC)c1=c1cc(S(=O)(=O)NCCCS)cc4c1=NC(=C3)C4(CC)CC)=C2 [Compound 18] | 40 nM | 0.03 | 52,000 M^−1 cm^−1 | 684 | –
CCC1=C(CC)C2=NC1=Cc1c(CC)c(CC)c3[n]1[In]([Cl])[n]1c(c(CC)c(CC)c1=c1cc(C)cc4c1=NC(=C3)C4(CC)CC)=C2 [Compound 11] | – | 0.034 | 54,000 M^−1 cm^−1 | 687 | % Cure (30 days) (BA mammary carcinoma; drug dose 0.15 μm/Kg via tail vein in EYP, treatment 24 post injection): 90%
CCC1=C(CC)c2cc3[nH]c(c(CC)c3CC)c3cc(S(=O)(=O)NCCCO)cc4c3nc(cc3[nH]c(cc1n2)c(CC)c3CC)C4(CC)CC [Compound 2, OEBCSO2NH(CH2)3OH] | 500 to 1000 nM | 0.230 | 34,000 M^−1 cm^−1 | 665 | % Cure (30 days) (BA mammary carcinoma; [4]): 80%; Cellular uptake (24 hrs) (V-79 cells): 0.129 ρmole/μg protein
CCC1=C(CC)C2=NC1=Cc1c(CC)c(CC)c3[n]1[In]([Cl])[n]1c(c(CC)c(CC)c1=c1cc(S(=O)(=O)NCCCO)cc4c1=NC(=C3)C4(CC)CC)=C2 [Compound 10, InOEBCSO2NH(CH2)3OH] | 100 to 125 nM | 0.027 | 52,000 M^−1 cm^−1 | 684 | % Cure (30 days) (BA mammary carcinoma; [6]): 100%
tin octaethylbenzochlorin [Compound 6] | 80 to 160 nM | 0.044 | 54,000 M^−1 cm^−1 | 691 | % Cure (30 days) (BA mammary carcinoma; drug dose 0.75 μm/Kg via tail vein in EYP, treatment 24 post injection): 80%; Cellular uptake (24 hrs) (V-79 cells): 0.501 ρmole/μg protein
CCC1=C(CC)C2=NC1=Cc1c(CC)c(CC)c3[n]1[In]([Cl])[n]1c(c(CC)c(CC)c1=c1cc(S(=O)(=O)N(CCO)CCO)cc4c1=NC(=C3)C4(CC)CC)=C2 [Compound 12] | 40 nM | ˜0.03 | 52,000 M^−1 cm^−1 | 684 | % Cure (30 days) (BA mammary carcinoma; [5]): 90%
CCC1=C(C)C2=NC1=Cc1c(C)c3c4[n]1[In]([Cl])[n]1c(c(C)c(C(C)=O)c1=C2)=CC1=NC(=C4CC3=O)[C@@H](CCC(=O)OC)[C@@H]1C [Compound 26, Indium 2-desvinyl-2-acetyl pyropheophorbide] | 60 nM | – | – | 672 | % Cure (30 days) (BA mammary carcinoma; drug dose 0.125 μm/Kg via tail vein in EYP, treatment 8 post injection): 90%
CCC1=C(CC)C2=NC1=Cc1c(CC)c(CC)c3[n]1[In]([Cl])[n]1c(c(CC)c(CC)c1=c1cc(S(=O)(=O)NC(CO)(CO)CO)cc4c1=NC(=C3)C4(CC)CC)=C2 [Compound 19, InOEBCSO2NHC(CH2OH)3] | 40 nM | 0.03 | 52,000 M^−1 cm^−1 | 684 | –
CCC1=C(CC)C2=NC1=Cc1c(CC)c(CC)c3[n]1[In]([Cl])[n]1c(c(CC)c(CC)c1=c1cc(S(=O)(=O)NCC(=O)O)cc4c1=NC(=C3)C4(CC)CC)=C2 [Compound 20] | 40 nM | – | 52,000 M^−1 cm^−1 | 684 | –
CCC1=C(C)C2=NC1=Cc1c(C)c3c4[n]1[Pd][n]1c(c(C)c(C(C)=O)c1=C2)=CC1=NC(=C4CC3=O)[C@@H](CCC(=O)OC)[C@@H]1C [Compound 28] | 50 nM | – | – | 653 | % Cure (30 days) (BA mammary carcinoma; drug dose 0.2 μm/Kg via tail vein in EYP, treatment 8 post injection): 80%
C=Cc1c(C)c2[n]3c1=CC1=NC(=Cc4c(C)c5c([n]4[Sn]3([Cl])[Cl])C(=C3N=C(C=2)[C@@H](C)[C@@H]3CCC(=O)OC)CC5=O)C(CC)=C1C [Compound 23] | > 1000 nM | – | – | – | % Cure (30 days) (BA mammary carcinoma; drug dose 2.0 μm/Kg via tail vein in EYP, treatment 24 or 6 post injection): 0%
Indium 2-desvinyl-2-formyl pyropheophorbide [Compound 27] | 50 nM | – | – | 683 | % Cure (30 days) (BA mammary carcinoma; drug dose 0.1 μm/Kg via tail vein in EYP, treatment 8 post injection): 90%
CCC1=C(CC)C2=NC1=Cc1c(CC)c(CC)c3[n]1[In]([Cl])[n]1c(c(CC)c(CC)c1=c1cc(S(=O)(=O)NCCOCCOCCOC)cc4c1=NC(=C3)C4(CC)CC)=C2 [Compound 16] | 40 nM | ˜0.03 | 52,000 M^−1 cm^−1 | 684 | % Cure (30 days) (BA mammary carcinoma; [5]): 80%
CCC1=C(CC)C2=NC1=Cc1c(CC)c(CC)c3[n]1[In]([Cl])[n]1c(c(CC)c(CC)c1=c1cccc4c1=NC(=C3)C4(CC)CC)=C2 [Compound 9, In Octaethylbenzochlorin] | 100 nM | 0.028 | 53,000 M^−1 cm^−1 | 691 | % Cure (30 days) (BA mammary carcinoma; [6]): 70%; Cellular uptake (24 hrs) (V-79 cells): 0.336 ρmole/μg protein
